From patent publication US5763439A, “Pyridazinone derivatives or their salts, processes for their production, and anti-shock agents containing them” (Ishihara Sangyo Kaisha Ltd., priority 1993, dated 1998) come the findings set out here.

The test system of data set [1] is enteric hemorrhage of each rat. In words: Test Example 1: inhibition of enteric hemorrhage induced by intravenous lipopolysaccharide (E. coli) in rats. The format is in vivo, SD male rats. Particulars: ip, 30 min before LPS 10 mg/kg i.v., 1 h after LPS, read-out: Inhibition rate; for inhibition in vivo at 12.5 mg/kg: 12.5 mg/kg i.p.; for inhibition in vivo at 50 mg/kg: 50 mg/kg i.p.; for inhibition in vivo at 25 mg/kg: 25 mg/kg i.p. How it is done:
A drug having a test compound dissolved in the form of its Na^+ salt or Cl^- salt in saline or suspended in saline containing 0.5% by weight of carboxymethyl cellulose (manufactured by Nakalai Tesque K. K., hereinafter referred to simply as CMC), was intraperitonially injected to SD male rats of seven weeks old. […] One hour after the injection of the lipopolysaccharide, enteric hemorrhage of each rat was inspected, and the degree of hemorrhage was evaluated by the following ratings:
(§1) 2: Slight subepithelial congestion
(§2) 4: Subepithelial congestion over a wide range and slight submucous congestion
6: Submucous congestion over a wide range, flow out of blood from submucous tissues and necrosis
For the control, the test was conducted in the same manner except that no test compound was added.
The inhibition rate was obtained by the following formula.
(§3) Inhibition rate (%)=(A-B)/A×100
(§4) B: rating of a rat administered with a test compound

Data set [2] is described as follows: Test Example 2: Acute Toxicity. Particulars: mouse, in vivo, ip, DDY male mice, five mice per group, read-out: 50% lethal dose LD50. The protocol: Using DDY male mice of five weeks old, each group consisted of five mice. A test compound was suspended in saline containing 0.5% by weight of CMC and intraperitonially injected at a dose of 0.1 ml/10 g. 24 hours after the injection, survival or death was observed, and the number of death/the number of tested animals was obtained, and the 50% lethal dose LD50 was estimated, whereby LD50 of each of Compound Nos. 4, 9, 10, 15, 21, 25, 30, 33, 37, 44, 47, 58, 60 and 67 was at least 100 mg/kg.

In another data set the test system is SD male rats. As to the kind of experiment: Test Example 3: survival of rats after intravenous lipopolysaccharide (E. coli). It is filed as in vivo. The following applies: 50 mg/kg i.p. 30 min before and again 3 h after LPS 10 mg/kg i.v.; 48 h; control 0%. How it is done: A drug having a test compound suspended in saline containing 0.5% by weight of CMC, was intraperitonially administered to SD male rats of seven weeks old so that the dose would be 50 mg/kg. 30 minutes after the injection of the drug, lipopolysaccharide derived from E. coli (manufactured by Difco Company, Product No. 0127:B8) was intravenously injected into the tail vein of each rat so that the dose would be 10 mg/kg. Three hours after the injection of the lipopolysaccharide, the drug was again intraperitonially administered in the same amount.
(§5) Survival rate (%)=(number of survived animals/number of tested

The subject of a further data set is DDY male mice. As to the kind of experiment: Test Example 4: survival of mice after intravenous platelet-activating factor (PAF). The format is in vivo. Particulars: 100 mg/kg i.p. 1 h before PAF (10 μg/ml, 15 ml/kg i.v.); 1 h after PAF; control 0% (Nos. 21, 71, 78) or 14% (Nos. 22, 47). How it is done:
A drug having a test compound dissolved in the form of its Na^+ salt or or Cl^- salt in saline or suspended in saline containing 0.5% by weight of CMC, was intraperitonially injected to DDY male mice of five weeks old so that the dose would be 100 mg/kg. One hour after the injection of the drug, a solution (containing 1% by weight of dimethylsulfoxide) having a platelet-activating factor (PAF) dissolved in saline to a concentration of 10 μg/ml, was intravenously injected into the tail vein of each mouse in an amount of 15 ml/kg.
One hour after the injection of PAF, survival or death of each mouse was observed, and the survival rate was obtained by the following formula, whereby with Compound Nos. 21, 47, 71 and 78, the survival rate was 100%, and with Compound No. 22, the survival rate was 80%.
Further, for the control, the test was conducted in the same manner except that no test compound was added, whereby with each control corresponding to the test group for each of Compound Nos. 21, 71 and 78, the survival rate was 0%, and in the case of Compound Nos. 22 and 47, the survival rate of the control was 14%.
as §5

The test system of data set [3] is enteric hemorrhage of each rat. In words: Test Example 5: inhibition of enteric hemorrhage induced by intravenous PAF in rats. The following applies: 12.5 mg/kg i.p. 30 min before PAF (10 μg/ml, 1 ml/kg i.v.); 1 h after PAF. The format is in vivo, SD male rats. How it is done: A drug having a test compound dissolved in the form of its Na^+ salt or or Cl^- salt in saline or suspended in saline containing 0.5% by weight of CMC, was intraperitonially injected to SD male rats of seven weeks old so that the dose of the test compound would be 12.5 mg/kg. 30 minutes after the injection of the drug, a solution (containing 1% by weight of dimethylsulfoxide) having PAF dissolved in saline to a concentration of 10 μg/ml, was intravenously injected into the tail vein of each rat in an amount of 1 ml/kg.
One hour after the injection of PAF, enteric hemorrhage of each rat was inspected, and the degree of hemorrhage was evaluated by the following ratings:
as §1, §2
6: Submucous congestion over a wide range, flow out of blood from the submucous tissues and necrosis
as §3, §4

For `C[S+]([O-])c1c(NCc2ccncc2)cnn(C(C)(C)C)c1=O` (stereo not shown) [Compound No. 8, 2-tert-butyl-4-methanesulfinyl-5-(4-pyridylmethylamino)pyridazin-3-(2H)-one], the inhibition in vivo at 12.5 mg/kg in data set [1] amounted to 72%.

For the compound `CC(C)(C)n1ncc(NCc2ccncc2)c(C=O)c1=O` [Compound No. 24, 2-tert-butyl-4-formyl-5-(4-pyridylmethylamino) pyridazin-3-(2H)-one], the inhibition in vivo at 50 mg/kg in data set [1] came to 100%.

`COCc1c(NCc2ccncc2)cnn(C)c1=O` [Compound No. 105, 4-methoxymethyl-2-methyl-5-(4-pyridylmethylamino)pyridazin-3-(2H)-one]: in data set [1], the inhibition in vivo at 12.5 mg/kg was 92%.

`CC(C)(C)n1ncc(NCc2ccncc2)c(S(C)(=O)=O)c1=O` [Compound No. 9, 2-tert-butyl-4-methanesulfonyl-5-(4-pyridylmethylamino)pyridazin-3-(2H)-one]: the LD50 at 24 h in data set [2] was at least 100 mg/kg. Moreover, in data set [1], the inhibition in vivo at 50 mg/kg turned out to be 43%.

With `Cn1ncc(NCc2ccncc2)c(CO)c1=O` [Compound No. 70, 4-hydroxymethyl-2-methyl-5-(4-pyridylmethylamino)pyridazin-3-(2H)-one], the Survival rate with SD male rats turned out to be 50%. Further, in data set [1], the inhibition in vivo at 12.5 mg/kg stood at 72%.

For the compound `Cc1c(NC(=O)c2ccncc2)cnn(C(C)(C)C)c1=O` [Compound No. 1, 2-tert-butyl-4-methyl-5-(4-pyridylcarbonylamino)pyridazin-3-(2H)-one], the inhibition in vivo at 25 mg/kg in data set [1] was determined as 96%.

Compound `CC(C)(C)n1ncc(NCc2ccncc2)c(C#N)c1=O` [Compound No. 21, 2-tert-butyl-4-cyano-5-(4-pyridylmethylamino)pyridazin-3-(2H)-one] yielded a Survival rate with DDY male mice of 100%. Also, the LD50 at 24 h in data set [2] is at least 100 mg/kg. Also, in data set [1], the inhibition in vivo at 12.5 mg/kg was 65%, the inhibition in vivo at 25 mg/kg amounted to 96% and the inhibition in vivo at 50 mg/kg turned out to be 100%.

Turning to `CC(C)(C)n1ncc(NCc2ccncc2)c(N(S(C)(=O)=O)S(C)(=O)=O)c1=O` [Compound No. 30, 2-tert-butyl-4-N,N-bis(methanesulfonyl)amino-5-(4-pyridylmethylamino)pyridazin-3-(2H)-one], the LD50 at 24 h in data set [2] was at least 100 mg/kg.

`COCc1c(N(C)Cc2ccncc2)cnn(C)c1=O` [Compound No. 73, 4-methoxymethyl-2-methyl-5-(N-methyl-4-pyridylmethylamino)pyridazin-3-(2H)-one] yielded an Inhibition rate in data set [3] of 92%. Further, in the data set with SD male rats, the Survival rate turned out to be 75%. Further, the inhibition in vivo at 12.5 mg/kg in data set [1] was 76%.

For the compound `CSc1c(NCc2ccncc2)cnn(C(C)(C)C)c1=O` [Compound No. 7, 2-tert-butyl-4-methylthio-5-(4-pyridylmethylamino)pyridazin-3-(2H)-one], in data set [1], the inhibition in vivo at 12.5 mg/kg was 78% and the inhibition in vivo at 50 mg/kg turned out to be 100%.

On to `CC1CCOC(c2c(NCc3ccncc3)cnn(C(C)(C)C)c2=O)O1` (stereo not shown) [Compound No. 44, 2-tert-butyl-4-(4-methyl-1,3-dioxan-2-yl)-5-(4-pyridylmethylamino)pyridazin-3-(2H)-one], for which the LD50 at 24 h in data set [2] is at least 100 mg/kg. The inhibition in vivo at 12.5 mg/kg in data set [1] stood at 77%.

`CCn1ncc(NCc2ccncc2)c(C#N)c1=O` [Compound No. 47, 4-cyano-2-ethyl-5-(4-pyridylmethylamino)pyridazin-3-(2H)-one] came in with a Survival rate in the data set on DDY male mice of 100%. For the same compound, the LD50 at 24 h in data set [2] is at least 100 mg/kg. In data set [1], the inhibition in vivo at 12.5 mg/kg was 75%.

`COC(=O)c1c(NCc2ccncc2)cnn(C(C)(C)C)c1=O` [Compound No. 22, 2-tert-butyl-4-methoxycarbonyl-5-(4-pyridylmethylamino)pyridazin-3-(2H)-one] returned a Survival rate with DDY male mice of 80%. Besides, in data set [1], the inhibition in vivo at 12.5 mg/kg was determined as 41% and the inhibition in vivo at 25 mg/kg was found to be 100%.

With `CCC(=O)Nc1c(NCc2ccncc2)cnn(C(C)(C)C)c1=O` [Compound No. 28, 2-tert-butyl-4-propionylamide-5-(4-pyridylmethylamino)pyridazin-3-(2H)-one], in data set [1], the inhibition in vivo at 12.5 mg/kg was found to be 42% and the inhibition in vivo at 50 mg/kg was 83%.

Regarding `CC(=O)N(C)c1c(NCc2ccncc2)cnn(C)c1=O` [Compound No. 69, 2-methyl-4-(N-methyl)acetylamino-5-(4-pyridylmethylamino)pyridazin-3-(2H)-one], in data set [3], the Inhibition rate is listed as 100%. Moreover, in data set [1], the inhibition in vivo at 12.5 mg/kg is 78%.

In the case of `CON=Cc1c(NCc2ccncc2)cnn(C(C)(C)C)c1=O` [Compound No. 16, 2-tert-butyl-5-(4-pyridylmethylamino)-4-methoxyiminomethylidenylpyridazin-3-(2H)-one], the inhibition in vivo at 100 mg/kg in data set [1] (100 mg/kg i.p.) amounted to 100%.

On to `CC(C)(C)n1ncc(NCc2ccncc2)c(C=NCc2ccncc2)c1=O` [Compound No. 2, 2-tert-butyl-5-(4-pyridylmethylamino)-4-(4-pyridylmethyliminomethylidenyl)pyridazin-3-(2H)-one], for which, in data set [1], the inhibition in vivo at 12.5 mg/kg came out at 75% and the inhibition in vivo at 25 mg/kg amounted to 98%.

Regarding `CC(C)(C)n1ncc(NCc2ccncc2)c(N)c1=O` [Compound No. 10, 4-amino-2-tert-butyl-5-(4-pyridylmethylamino)pyridazin-3-(2H)-one], the LD50 at 24 h in data set [2] is at least 100 mg/kg. For the same compound, in data set [1], the inhibition in vivo at 12.5 mg/kg turned out to be 50% and the inhibition in vivo at 50 mg/kg worked out at 94%.
